Reference: PubChem BioAssay (NCI)
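Step 1: Grow cells in 96-well plates. Step 2: Expose to compound for 48 hours at 5 concentrations. Step 3: Interpolate endpoints linearly; if unreached, use highest concentration. The concentration for full growth arrest is given as TGI.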

How the values were obtained:
XF 498 CNS = assay: growth of human tumour cells (NCI), 48 h
RXF-631 renal = assay: growth of human tumour cells (NCI), 48 h

SMILES: Nc1nc(N)c(N=Nc2ccccc2)c(=O)[nH]1
- TGI (XF 498 CNS): > 100 µM

SMILES: O=C(Nc1ccc(C(F)(F)F)cc1[N+](=O)[O-])C(=O)Nn1c(=S)[nH]c2ccccc2c1=O
- TGI (RXF-631 renal): > 100 µM
- TGI (XF 498 CNS): > 100 µM
